# Test results published in patent US12522607B2, “Substituted pyrazolo[3,4-d]pyrimidines as wee-1 inhibitors” (WIGEN BIOMEDICINE TECHNOLOGY (SHANGHAI) CO., LTD., priority 2020, dated 2026).
# pIC50: −log10 of the molar value.
# Key:
# [1] = system: HT29 cells; assay: Antiproliferative activity against HT29 cells (Cell Titer-Lumi, ATP content); assay type: cell-based; details: Homo sapiens, HT-29, 72 after compound addition, read-out: HT-29 cells Anti-proliferative activity (IC50 for the inhibition against HT-29 cell growth)
# In short: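 3000 cells per well, allowed to adhere overnight, then exposed to a gradient dilution of compound for 72 (units as printed). Cellular ATP read by luminescence (Cell Titer-Lumi) as a growth measure; IC50 for growth inhibition calculated.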
# [2] = biological target: T1, Wee-1 kinase (Homo sapiens, UniProt P30291); assay: Inhibitory activity against Wee-1 kinase (Lanthra Screen Wee-1 kinase kit, Tracer 178); assay type: binding; details: Wee-1 kinase 5 nM, Tracer 178 50 nM, 1 h room temperature
# T1 construct: purchased Invitrogen
# In short: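 LanthaScreen binding format: Wee-1 kinase (5 nM final) with Eu-anti-GST antibody (2 nM final) and kinase Tracer 178 (50 nM final), compounds serially diluted in DMSO. 1 h at room temperature before reading. IC50 relative to DMSO control.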
# T1 sequence (P30291 whole entry): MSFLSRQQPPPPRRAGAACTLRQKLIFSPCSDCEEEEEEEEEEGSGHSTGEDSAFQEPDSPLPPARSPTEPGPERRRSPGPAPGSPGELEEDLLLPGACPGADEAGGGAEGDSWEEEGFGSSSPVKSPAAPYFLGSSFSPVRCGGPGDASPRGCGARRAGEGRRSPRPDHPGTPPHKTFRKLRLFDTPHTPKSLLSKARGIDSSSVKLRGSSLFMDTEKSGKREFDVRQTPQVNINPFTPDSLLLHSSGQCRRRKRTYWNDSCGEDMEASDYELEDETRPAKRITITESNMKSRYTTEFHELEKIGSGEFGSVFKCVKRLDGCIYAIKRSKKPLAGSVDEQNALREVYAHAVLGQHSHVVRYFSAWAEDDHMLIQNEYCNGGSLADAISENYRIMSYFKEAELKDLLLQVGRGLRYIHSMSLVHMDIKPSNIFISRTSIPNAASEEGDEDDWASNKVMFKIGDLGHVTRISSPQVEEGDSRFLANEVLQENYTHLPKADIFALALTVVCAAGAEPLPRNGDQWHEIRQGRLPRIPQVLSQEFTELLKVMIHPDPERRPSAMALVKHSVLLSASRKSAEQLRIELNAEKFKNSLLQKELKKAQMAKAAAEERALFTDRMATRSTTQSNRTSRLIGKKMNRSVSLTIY
SMILES,pIC50 [1],pIC50 [2]
C=CCn1c(=O)c2cnc(Nc3ccc(C4CCN(C)CC4)c(C)c3)nc2n1-c1ccc(=O)n(C(C)C)n1 [Compound 193],≥ 6.00,≥ 7.52
C=CCn1c(=O)c2cnc(Nc3ccc(N4CCC(N5CCCCC5)CC4)cc3)nc2n1-c1ccc(=O)n(C(C)C)n1 [Compound 145],≥ 6.00,≥ 7.52
C=CCn1c(=O)c2cnc(Nc3cc(F)cc(N4CCN(C)CC4)c3)nc2n1-c1ccc(=O)n(C(C)C)n1 [Compound 72],≥ 6.00,≥ 7.52
C=CCn1c(=O)c2cnc(Nc3ccc(N4C[C@@H](C)N[C@@H](C)C4)c(Cl)c3)nc2n1-c1ccc(=O)n(C(C)C)n1 [Compound 120],≥ 6.00,≥ 7.52
Cc1cc(Nc2ncc3c(=O)n(C(C)C)n(-c4ccc(=O)n(C(C)C)n4)c3n2)ccc1N1CCN(C)CC1 [Compound 278],≥ 6.00,≥ 7.52
Cc1cc(Nc2ncc3c(=O)n(C4CC4)n(-c4ccc(=O)n(C(C)(C)C)n4)c3n2)ccc1N1CCN(C)CC1 [Compound 293],≥ 6.00,≥ 7.52
C=CCn1c(=O)c2cnc(Nc3ccc4c(c3)CN(C)CC43CC3)nc2n1-c1ccc(=O)n(C(C)(C)C)c1 [Compound 329],≥ 6.00,≥ 7.52
C=CCn1c(=O)c2cnc(Nc3cc(C)c(N4CCNCC4)c(F)c3)nc2n1-c1ccc(=O)n(C(C)C)n1 [Compound 55],≥ 6.00,≥ 7.52
C=CCn1c(=O)c2cnc(Nc3ccc(N4CCC(C)(N(C)C)CC4)cc3)nc2n1-c1ccc(=O)n(C(C)C)n1 [Compound 113],≥ 6.00,≥ 7.52
C=CCn1c(=O)c2cnc(Nc3ccc(N4CCN(C)CC4)cc3)nc2n1-c1ccc(=O)n(C(C)(C)CO)n1 [Compound 18],5.52 to 6.00,≥ 7.52
C=CCn1c(=O)c2cnc(Nc3ccc(N4CCC(N5CCCCC5)CC4)c(OC)c3)nc2n1-c1ccc(=O)n(C(C)C)n1 [Compound 147],≥ 6.00,≥ 7.52
C=CCn1c(=O)c2cnc(Nc3ccc(N4CCN(CC(F)F)CC4)cc3)nc2n1-c1ccc(=O)n(C(C)C)n1 [Compound 38],≥ 6.00,≥ 7.52
C=CCn1c(=O)c2cnc(Nc3ccc(N4C[C@@H](C)N(C)[C@@H](C)C4)c(C)c3)nc2n1-c1ccc(=O)n(C(C)C)n1 [Compound 119],≥ 6.00,≥ 7.52
C=CCn1c(=O)c2cnc(Nc3ccc4c(c3)CCN(C(C)C)C4)nc2n1-c1ccc(=O)n(C(C)C)n1 [Compound 230],≥ 6.00,≥ 7.52
C=CCn1c(=O)c2cnc(Nc3ccc(N4CC(N5CCCC5)C4)c(OC)c3)nc2n1-c1ccc(=O)n(C(C)C)n1 [Compound 85],≥ 6.00,≥ 7.52
C=CCn1c(=O)c2cnc(Nc3ccc(N4CC5(CCNC5)C4)cc3)nc2n1-c1ccc(=O)n(C(C)C)n1 [Compound 160],5.52 to 6.00,≥ 7.52
C=CCn1c(=O)c2cnc(Nc3ccc(N4CC[C@H](N(C)C)C4)c(OC)c3)nc2n1-c1ccc(=O)n(C(C)C)n1 [Compound 94],≥ 6.00,≥ 7.52
C=CCn1c(=O)c2cnc(Nc3ccc4c(c3)C3(CC3)CN(C(C)C)C4)nc2n1-c1ccc(=O)n(C(C)C)n1 [Compound 236],≥ 6.00,≥ 7.52
C=CCn1c(=O)c2cnc(Nc3ccc(N4CC5CCC(C4)N5C)c(C)c3)nc2n1-c1ccc(=O)n(C(C)C)n1 [Compound 138],5.52 to 6.00,≥ 7.52
Cc1cc(Nc2ncc3c(=O)n(C(C)C)n(-c4ccc(=O)n(C(C)C)n4)c3n2)ccc1C1CCN(C)CC1 [Compound 279],≥ 6.00,≥ 7.52
C=CCn1c(=O)c2cnc(Nc3cc(C)cc(N4CCNCC4)c3)nc2n1-c1ccc(=O)n(C(C)C)n1 [Compound 69],≥ 6.00,≥ 7.52
C=CCn1c(=O)c2cnc(Nc3ccc4c(c3)C3(CC3)CNC4)nc2n1-c1ccc(=O)n(C(C)C)n1 [Compound 234],≥ 6.00,≥ 7.52
C=CCn1c(=O)c2cnc(Nc3ccc(N4CCC(N(C)C)CC4)c(OC)c3)nc2n1-c1ccc(=O)n(C(C)C)n1 [Compound 100],≥ 6.00,≥ 7.52
C=CCn1c(=O)c2cnc(Nc3ccc(N4CCC5(CN(C)C5)C4)cc3)nc2n1-c1ccc(=O)n(C(C)C)n1 [Compound 172],≥ 6.00,≥ 7.52

SMILES,pIC50 [1],pIC50 [2]
C=CCn1c(=O)c2cnc(Nc3ccc(C4CCN(C)CC4)c(C(F)(F)F)c3)nc2n1-c1ccc(=O)n(C(C)C)n1 [Compound 197],≥ 6.00,≥ 7.52
C=CCn1c(=O)c2cnc(Nc3ccc(N4CCN(CCF)CC4)cc3)nc2n1-c1ccc(=O)n(C(C)C)n1 [Compound 37],≥ 6.00,≥ 7.52
C=CCn1c(=O)c2cnc(Nc3ccc(N4CCN(C)CC4)cc3)nc2n1-c1ccc(=O)n(C(C)(C)C)c1 [Compound 21],≥ 6.00,≥ 7.52
C=CCn1c(=O)c2cnc(Nc3ccc(N4CCN(C)CC4)c(Cl)c3)nc2n1-c1ccc(=O)n(C(C)C)c1 [Compound 46],≥ 6.00,≥ 7.52
C=CCn1c(=O)c2cnc(Nc3ccc4c(N5CCC(N(C)C)CC5)cn(C)c4c3)nc2n1-c1ccc(=O)n(C(C)C)n1 [Compound 266],≥ 6.00,≥ 7.52
C=CCn1c(=O)c2cnc(Nc3ccc(N4CCN(C)CC4)c(CC(F)(F)F)c3)nc2n1-c1ccc(=O)n(C(C)C)n1 [Compound 54],≥ 6.00,≥ 7.52
C=CCn1c(=O)c2cnc(Nc3cc(F)c(N4CCNCC4)c(OC)c3)nc2n1-c1ccc(=O)n(C(C)C)n1 [Compound 63],≥ 6.00,≥ 7.52
C=CCn1c(=O)c2cnc(Nc3cc(N4CCN(C(C)C)CC4)c4ccn(C)c4c3)nc2n1-c1ccc(=O)n(C(C)C)n1 [Compound 256],≥ 6.00,≥ 7.52
C=CCn1c(=O)c2cnc(Nc3cnn(C4CCN(C)CC4)c3)nc2n1-c1ccc(=O)n(C(C)C)n1 [Compound 250],5.52 to 6.00,7.00 to 7.52
C=CCn1c(=O)c2cnc(Nc3ccc(N4CCN(C)CC4)c(C)c3)nc2n1-c1cc(F)c(=O)n(C(C)C)c1 [Compound 312],≥ 6.00,≥ 7.52
C=CCn1c(=O)c2cnc(Nc3ccc(N4CCN(C)CC4)cc3)nc2n1-c1ccc(=O)n(C(C)(C)C)n1 [Compound 9],≥ 6.00,≥ 7.52
CC(C)n1cc(-n2c3nc(Nc4ccc5c(c4)CN(C)CC54CC4)ncc3c(=O)n2C2CC2)ccc1=O [Compound 310],≥ 6.00,≥ 7.52
C=CCn1c(=O)c2cnc(Nc3ccc(N4CC5(CCN(C)C5)C4)c(OC)c3)nc2n1-c1ccc(=O)n(C(C)C)n1 [Compound 165],≥ 6.00,≥ 7.52
CC(C)n1cc(-n2c3nc(Nc4ccc(N5CCN(C)CC5)cc4)ncc3c(=O)n2C(C)C)cc(F)c1=O [Compound 319],≥ 6.00,≥ 7.52
C=CCn1c(=O)c2cnc(Nc3ccc(N4CC(N(C)C)C4)c(OC)c3)nc2n1-c1ccc(=O)n(C(C)C)n1 [Compound 79],≥ 6.00,≥ 7.52
C=CCn1c(=O)c2cnc(Nc3ccc(C4CCN(C)CC4)c(C)c3)nc2n1-c1cc(F)c(=O)n(C(C)C)c1 [Compound 313],≥ 6.00,≥ 7.52
CCn1c(=O)c2cnc(Nc3ccc(C4CCN(C)CC4)c(C)c3)nc2n1-c1cc(F)c(=O)n(C(C)C)c1 [Compound 317],≥ 6.00,≥ 7.52
C=CCn1c(=O)c2cnc(Nc3ccc(N4CCC5(CC4)CN(C)C5)c(OC)c3)nc2n1-c1ccc(=O)n(C(C)C)n1 [Compound 180],≥ 6.00,≥ 7.52
CCn1c(=O)c2cnc(Nc3ccc(N4CCN(C)CC4)cc3)nc2n1-c1ccc(=O)n(C(C)(C)C)c1 [Compound 330],≥ 6.00,≥ 7.52
C=CCn1c(=O)c2cnc(Nc3ccc(N4CCN(C)CC4)c(C)c3)nc2n1-c1ccc(=O)n(C(C)C)n1 [Compound 42],≥ 6.00,≥ 7.52
C=CCn1c(=O)c2cnc(Nc3ccc(N4CCN(C)CC4)cc3)nc2n1-c1cc(F)c(=O)n(C(C)C)c1 [Compound 24],≥ 6.00,≥ 7.52
C=CCn1c(=O)c2cnc(Nc3ccc4c(ccn4C4CCN(C)CC4)c3)nc2n1-c1ccc(=O)n(C(C)C)n1 [Compound 270],≥ 6.00,≥ 7.52
C=CCn1c(=O)c2cnc(Nc3ccc(N4CCN(C)CC4)cc3)nc2n1-c1ccc(=O)n(CC2CC2)n1 [Compound 16],5.52 to 6.00,7.00 to 7.52
